Structures are written as SMILES. Where only a bound is given, the exact number is not on record here.

3 compounds from patent publication US11197831B2, “Compositions comprising at least one dispersed active principle and lipid microcapsules” (GALDERMA RESEARCH & DEVELOPMENT, priority 2015, dated 2021) can be followed below.

The nature of series [1]: Maximum or visual solubility of the active ingredient in fatty substances and solvents (HPLC-UV). The class given is physicochemical. The protocol: (§1) The solubility and the stability of the active ingredient were evaluated by liquid chromatography coupled to a UV detector (HPLC-UV).
The solubility of the active ingredient was evaluated by liquid chromatography coupled to a UV detector (HPLC-UV).

A short description of series [2]: Stability of the active ingredient in fatty substances and solvents (HPLC-UV). It is filed as physicochemical. The protocol: as §1
Series [3] relates to Whole human abdominal skin. Kind of series: In vitro skin penetration kinetics of dispersed Trifarotene (Franz cells, LC/MS/MS). The class given is in vitro ADME. Conditions: irrespective of the formulation tested; 24 h. The protocol: In this study, the formulations were applied for 24 hours to the skin surface. After the application, Trifarotene is quantified at several points in time (1 h, 3 h, 6 h, 8 h and 24 h) in the various skin compartments: stratum corneum, epidermis, dermis, and receiving liquid according to a validated bioanalysis method performed by positive electrospray ionization tandem mass spectrometry, using a Xevo system (Waters). The quantification limit for Trifarotene is 0.01 ng/mL. […] [table] The results presented in FIG. 1 show the amount penetrated as a percentage of the dose applied (% of the dose applied) according to the various skin compartments after 24 h of exposure. The total amount penetrated corresponds to the amount of active ingredient assayed in the various skin compartments (stratum corneum, epidermis, dermis) and the receiving liquid. FIGS. 3 and 4 present the areas under the curve (AUCs) calculated respectively after 8 hours, corresponding to the shortest exposure times, and after 24 hours, corresponding to the longest exposure times. The AUCs were calculated for each kinetics (n=6). They were then statistically compared by one-way ANOVA followed by Dunnett's test.

Series [4] relates to Whole human abdominal skin. Briefly: In vitro skin penetration of dispersed Compound A2 (Franz cells, LC/MS/MS). It is filed as in vitro ADME. The settings on record: irrespective of the formulation tested; 24 h. The protocol:
In this study, the formulations were applied for 24 hours to the skin surface. At the end of the application, Compound A2 is quantified in the various skin compartments: stratum corneum, epidermis, dermis, and receiving liquid according to a validated bioanalysis method performed by positive electrospray ionization tandem mass spectrometry, using a Xevo system (Waters). The quantification limit for Compound A2 is 2 ng/mL. The LC/MS/MS conditions developed made it possible to detect up to 0.1% of the dose applied in each compartment (dose not absorbed, stratum, epidermis, dermis, and receiving liquid).
The results presented in FIG. 5 show the amount penetrated as a percentage of the dose applied (% of the dose applied) according to the various skin compartments.

The mark [5] stands for this setting: in Capric/caprylic acid triglycerides (Miglyol ® 812N).
Where [6] appears, read: in Diisopropyl adipate (Schercemol Dia Ester).
Where [7] appears, read: in PPG-15 stearyl ether (Arlamol PS11E-LQ).
[8] abbreviates: in Octyldodecanol (Eutanol ® G).
Setting [9] is: in Propylene glycol dicaprylate/dicaprate (Myritol ® PC).

For the compound `Cc1cc(COc2ccc(S(=O)(=O)NC[C@@H](C(=O)NO)N3CCN(S(=O)(=O)C(C)C)CC3)cc2)c2ccccc2n1` [Compound A3, (S)—N-hydroxy-3-[4-(2-methyl-quinolin-4-ylmethoxy)-benzenesulfonylamino]-2-[4-(propane-2-sulfonyl)-piperazin-1-yl]-propionamide], the “Maximum or visual* solubility (% w/w) (AT)” value worked out at 0.12 % w/w in series [1] (in 10/90% Dimethyl sulfoxide/C12-15 alkyl lactate); 0.38 % w/w in series [1] (in 10/90% Dimethyl sulfoxide/Diisopropyl adipate); 0.07 % w/w in series [1] (in 10/90% Dimethyl sulfoxide/PPG-15 stearyl ether); 0.74 % w/w in series [1] (in 20/80% Dimethyl sulfoxide/C12-15 alkyl lactate); 3.15 % w/w in series [1] (in 20/80% Dimethyl sulfoxide/Schercemol Dia Ester); 0.04 % w/w in series [1] (in C12-15 alkyl lactate (Ceraphyl 41)). Also, the “Maximum or visual* solubility (% w/w) (AT)” value in series [1] (setting [5]) is recorded as “<detection limit”; in series [1] (setting [6]), 0.02 % w/w; in series [1] (setting [7]), 0.01 % w/w; in series [1] (visual*, in Dimethyl sulfoxide (Procipient DMSO)), greater than 20%* % w/w.

Regarding `CC(C)(C)c1cc(-c2cc(-c3ccc(C(=O)O)cc3)ccc2OCCO)ccc1N1CCCC1` [Trifarotene], the Stability in series [2] (AT/40° C., in Capric/caprylic acid triglycerides (Miglyol ® 812N)) was found to be 6 months; in series [2] (AT/40° C., in Diisopropyl adipate (Schercemol Dia Ester)), 6 months; in series [2] (AT/40° C., in Macrogol oleate (Labrafil ® M1944CS)), 6 months; in series [2] (AT/40° C., in PPG-15 stearyl ether (Arlamol PS11E-LQ)) it was 6 months; in series [2] (AT/40° C., in Propylene glycol monocaprylate (Capryol ® 90)), 6 months; in series [2] (AT/40° C., in Propylene glycol monolaurate (Lauroglycol ® FCC)) it was 6 months. The Stability in series [2] (AT/40° C., in Sweet almond oil) is listed as 6 months; in series [2] (setting [8]) it was “Unstable”; in series [2] (setting [9]), “Unstable”. The skin distribution result in series [3] is “essentially located in the stratum corneum and the epidermis, and more moderately in the dermis”. Further, the “Maximum solubility (% w/w) (AT)” value worked out at 0.026 % w/w in series [1] (in Alkyl (C12-15) benzoate (Crodamol AB)); 0.019 % w/w in series [1] (setting [5]); 0.297 % w/w in series [1] (setting [6]); 0.156 % w/w in series [1] (in Macrogol oleate (Labrafil ® M1944CS)); 0.0001 % w/w in series [1] (in Mineral oil); 0.137 % w/w in series [1] (setting [8]). Further, the “Maximum solubility (% w/w) (AT)” value in series [1] (setting [7]) turned out to be 0.292 % w/w; in series [1] (setting [9]), 0.069 % w/w; in series [1] (in Propylene glycol monocaprylate (Capryol ® 90)), 0.802 % w/w; in series [1] (in Propylene glycol monolaurate (Lauroglycol ® FCC)) it was 0.296 % w/w; in series [1] (in Sweet almond oil), 0.011 % w/w.

In the case of `C[C@H](NC(=O)N1CCC(c2ccc(O)cc2O)CC1)c1ccccc1` [Compound A2, (S)-4-(2,4-dihydroxyphenyl)-N-(1-phenylethyl)piperidine-1-carboxamide], the skin distribution result in series [4] was “essentially located in the stratum corneum and the epidermis, and more moderately in the dermis”. Moreover, in series [2] (3M, AT/40° C., in Diethylene glycol monoethyl ether (Transcutol HP), ** Appearance of coloring at AT and at 40° C.), the “Stability (3M) (AT/40° C.)” value is reported as “Stable **”. The “Maximum or visual* solubility (% w/w) (AT)” value is recorded as 13.9 % w/w in series [1] (in Diethylene glycol monoethyl ether (Transcutol HP)); <0.1* % w/w in series [1] (visual*, in Capric/caprylic acid triglycerides (Miglyol ® 812N)); <1.0* % w/w in series [1] (visual*, in Diisopropyl adipate (Schercemol Dia Ester)); 20-30* % w/w in series [1] (visual*, in Dimethyl capramide (Spectrasolv DMDA)); <1.0* % w/w in series [1] (visual*, in PPG-15 stearyl ether (Arlamol PS11E-LQ)).
